Measured values from patent US10478425B2, “5-phenylazaindole derivative having AMPK-activating activity” (Shionogi & Co., Ltd., priority 2016, dated 2019).

Molecular target: T1, Human AMPK α2β2γ1 (Homo sapiens, UniProt O43741+P54646)
T1 construct: The full length cDNAs of human AMPK β2 (NM_005399.3) and human AMPK α2 (NM_006252.3); The full length cDNAs of human AMPK β2 (NM_005399.3); the full length cDNA of human AMPK γ1 (NM_002733.3) had been inserted into pET28b(+); 6×His (N); made in house; host or cells: Escherichia coli BL21 CodonPlus (DE3)-RIL
Assay: Test Example 2: activation of phosphorylated human AMPK α2β2γ1 (mobility-shift kinase assay, FL-Peptide 7)
Type: biochemical
Details: for EC150: compound concentration showing 150% relative to the control (100%), human AMPK α2β2γ1 phosphorylated with CaMKK2; for Emax: maximum rate of increase in activity within the measurement range, control = 100%, read-out: Emax
How it was run: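 His-tagged α2β2γ1 expressed in E. coli was pre-phosphorylated by GST-CaMKKβ (25 °C, 1–1.5 h), then exposed to compound for 10 min (1% DMSO). Reaction: pH 7.0 HEPES, ATP and 1.5 μM FL-Peptide 7 (final), 2 h at 25 °C. Mobility-shift conversion gave % activity increase versus compound-free control.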

T1 sequence (P54646 whole entry): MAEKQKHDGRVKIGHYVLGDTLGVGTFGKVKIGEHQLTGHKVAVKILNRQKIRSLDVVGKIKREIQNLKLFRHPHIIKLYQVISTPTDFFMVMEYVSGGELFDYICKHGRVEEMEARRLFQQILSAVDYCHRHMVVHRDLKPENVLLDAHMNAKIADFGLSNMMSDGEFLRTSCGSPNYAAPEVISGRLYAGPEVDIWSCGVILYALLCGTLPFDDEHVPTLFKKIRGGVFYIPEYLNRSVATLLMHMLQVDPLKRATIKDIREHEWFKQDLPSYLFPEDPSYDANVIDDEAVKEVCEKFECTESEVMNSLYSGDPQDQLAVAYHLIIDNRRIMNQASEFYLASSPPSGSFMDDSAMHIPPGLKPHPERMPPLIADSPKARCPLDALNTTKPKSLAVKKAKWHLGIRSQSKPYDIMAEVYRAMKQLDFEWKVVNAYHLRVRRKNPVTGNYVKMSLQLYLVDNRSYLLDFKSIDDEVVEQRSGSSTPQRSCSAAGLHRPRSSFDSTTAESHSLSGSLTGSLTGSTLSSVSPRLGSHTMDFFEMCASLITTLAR
T1 sequence (O43741 whole entry): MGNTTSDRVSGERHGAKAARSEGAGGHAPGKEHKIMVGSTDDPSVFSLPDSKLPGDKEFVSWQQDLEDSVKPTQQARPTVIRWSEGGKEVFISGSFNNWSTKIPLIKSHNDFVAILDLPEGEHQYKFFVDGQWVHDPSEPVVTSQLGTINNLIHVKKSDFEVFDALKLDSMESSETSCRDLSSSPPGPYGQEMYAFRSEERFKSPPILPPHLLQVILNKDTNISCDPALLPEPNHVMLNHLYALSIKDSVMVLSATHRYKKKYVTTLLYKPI
T1 sequence (P54619 whole entry partner): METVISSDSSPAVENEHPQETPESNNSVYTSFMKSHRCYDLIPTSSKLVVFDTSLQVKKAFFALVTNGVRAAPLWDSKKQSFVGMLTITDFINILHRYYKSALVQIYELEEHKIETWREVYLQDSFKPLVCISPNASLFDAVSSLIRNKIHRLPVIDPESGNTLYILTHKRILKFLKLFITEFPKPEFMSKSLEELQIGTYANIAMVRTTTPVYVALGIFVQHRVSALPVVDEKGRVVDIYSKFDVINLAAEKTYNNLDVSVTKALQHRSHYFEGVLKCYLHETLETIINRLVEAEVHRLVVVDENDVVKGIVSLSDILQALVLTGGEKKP

Structure (SMILES) | EC150 | Emax
CCO[C@H]1[C@@H](CO)OC[C@H]1Oc1cc2nc(-c3ccc(-c4ccc(N=S(C)(C)=O)cc4)cc3)c(F)cc2[nH]1 [Compound I-2-55] | 19 nM | 507%
CP(C)(=O)c1ccc(-c2ccc(-c3nc4cc(O[C@@H]5CO[C@H]6[C@@H]5OC[C@H]6O)[nH]c4cc3F)cc2)cc1 [Compound I-2-56] | 1.6 nM | 618%
O[C@@H]1CO[C@H]2[C@@H]1OC[C@H]2Oc1cc2nc(-c3ccc(N4CCC(OC5CCNC5)CC4)cc3)c(F)cc2[nH]1 (stereo partly shown) [Compound I-2-57] | 26 nM | 601%
COCCCN1CCN(c2ccc(-c3nc4cc(O[C@@H]5CO[C@H]6[C@@H]5OC[C@H]6O)[nH]c4cc3F)cc2)CC1 [Compound I-2-58] | 56 nM | 514%
COCCOc1ccc(-c2ccc(-c3nc4cc(O[C@@H]5CO[C@H]6[C@@H]5OC[C@H]6O)[nH]c4cc3F)cc2)cc1F [Compound I-2-59] | 40 nM | 458%
O[C@@H]1CO[C@H]2[C@@H]1OC[C@H]2Oc1cc2nc(-c3ccc(-c4ccc(OC5CCNCC5)cc4)cc3)c(F)cc2[nH]1 [Compound I-2-60] | 2 nM | 564%
CCOCCOc1ccc(-c2ccc(-c3nc4cc(O[C@@H]5CO[C@H]6[C@@H]5OC[C@H]6O)[nH]c4cc3F)cc2)cc1 [Compound I-2-61] | 5.1 nM | 562%
O[C@@H]1CO[C@H]2[C@@H]1OC[C@H]2Oc1cc2nc(-c3ccc(N4CCC(OC5CCNCC5)CC4)cc3)c(F)cc2[nH]1 [Compound I-2-62] | 47 nM | 514%
O[C@@H]1CO[C@H]2[C@@H]1OC[C@H]2Oc1cc2nc(-c3ccc(-c4ccc(OCCC(F)F)cc4)cc3)c(F)cc2[nH]1 [Compound I-2-63] | 21 nM | 520%
O[C@@H]1CO[C@H]2[C@@H]1OC[C@H]2Oc1cc2nc(-c3ccc(C#CC4CCNCC4)cc3)c(F)cc2[nH]1 [Compound I-2-64] | 16 nM | 536%
CP(C)(=O)c1ccc(-c2ccc(-c3nc4cc(O[C@@H]5CO[C@H](CO)C5)[nH]c4cc3F)cc2)cc1 [Compound I-2-65] | 0.6 nM | 673%
OCC1(c2ccc(-c3nc4cc(O[C@@H]5CO[C@H]6[C@@H]5OC[C@H]6O)[nH]c4cc3F)cc2)CC1 [Compound I-2-66] | 1.1 nM | 580%
CC(C)(C)P(=O)(c1ccc(-c2ccc(-c3nc4cc(O[C@@H]5CO[C@H]6[C@@H]5OC[C@H]6O)[nH]c4cc3F)cc2)cc1)C(C)(C)C [Compound I-2-67] | 22 nM | 555%
O[C@@H]1CO[C@H]2[C@@H]1OC[C@H]2Oc1cc2nc(-c3ccc(-c4ccc(OC5CCOC5)cc4)cc3)c(F)cc2[nH]1 (stereo partly shown) [Compound I-2-69] | 13 nM | 557%
CCP(=O)(CC)c1ccc(-c2ccc(-c3nc4cc(O[C@@H]5CO[C@H]6[C@@H]5OC[C@H]6O)[nH]c4cc3F)cc2)cc1 [Compound I-2-72] | 2.7 nM | 591%
CS(C)(=O)=NC1CC=C(c2ccc(-c3nc4cc(O[C@@H]5CO[C@H](CO)C5)[nH]c4cc3F)cc2)CC1 (stereo partly shown) [Compound I-2-73] | 4.2 nM | 681%
COCC(=O)Nc1ccc(-c2ccc(-c3nc4cc(O[C@@H]5CO[C@H](CO)C5)[nH]c4cc3F)cc2)cc1 [Compound I-2-74] | 1.2 nM | 656%
COCCOc1cc(F)c(-c2ccc(-c3nc4cc(O[C@@H]5CO[C@H]6[C@@H]5OC[C@H]6O)[nH]c4cc3F)cc2)c(F)c1 [Compound I-2-76] | 20 nM | 490%

Structure (SMILES) | EC150 | Emax
CCP(=O)(CC)c1ccc(-c2ccc(-c3nc4cc(O[C@@H]5CO[C@H](CO)C5)[nH]c4cc3F)cc2)cc1 [Compound I-2-78] | 1.5 nM | 573%
CS(=O)(=O)c1ccc(-c2ccc(-c3nc4cc(O[C@@H]5CO[C@H](CO)C5)[nH]c4cc3F)cc2)cc1 [Compound I-2-79] | 0.69 nM | 591%
OC[C@@H]1C[C@H](Oc2cc3nc(-c4ccc(C5(CO)CC5)cc4)c(F)cc3[nH]2)CO1 [Compound I-2-80] | 2 nM | 558%
O=C(c1ccc(-c2ccc(-c3nc4cc(O[C@@H]5CO[C@H](CO)C5)[nH]c4cc3F)cc2)cc1)N1CCOCC1 [Compound I-2-81] | 0.78 nM | 591%
COCCNC(=O)c1ccc(-c2ccc(-c3nc4cc(O[C@@H]5CO[C@H](CO)C5)[nH]c4cc3F)cc2)cc1 [Compound I-2-82] | 0.5 nM | 591%
COCCN(C)C(=O)c1ccc(-c2ccc(-c3nc4cc(O[C@@H]5CO[C@H](CO)C5)[nH]c4cc3F)cc2)cc1 [Compound I-2-83] | 0.73 nM | 581%
O[C@@H]1CO[C@H]2[C@@H]1OC[C@H]2Oc1cc2nc(-c3ccc(-c4ccc(O[C@H]5CCOC5)cc4)cc3)c(F)cc2[nH]1 [Compound I-2-85] | 1.5 nM | 500%
CONC(=O)c1ccc(-c2ccc(-c3nc4cc(O[C@@H]5CO[C@H](CO)C5)[nH]c4cc3F)cc2)cc1 [Compound I-2-86] | 0.53 nM | 592%
CNC(=O)c1ccc(-c2ccc(-c3nc4cc(O[C@@H]5CO[C@H](CO)C5)[nH]c4cc3F)cc2)cc1 [Compound I-2-88] | 0.62 nM | 683%
CP(C)(=O)c1ccc(-c2ccc(-c3nc4cc(O[C@@H]5CO[C@H](CO)C5(F)F)[nH]c4cc3F)cc2)cc1 [Compound I-2-89] | 0.94 nM | 556%
OC[C@H]1OC[C@@H](Oc2cc3nc(-c4ccc(C5(CO)CC5)cc4)c(F)cc3[nH]2)C1(F)F [Compound I-2-90] | 1.9 nM | 406%
CC(=O)NC1CC=C(c2ccc(-c3nc4cc(O[C@@H]5CO[C@H](CO)C5)[nH]c4cc3F)cc2)CC1 (stereo partly shown) [Compound I-2-92] | 0.87 nM | 702%
COCC[S+]([O-])c1ccc(-c2ccc(-c3nc4cc(O[C@@H]5CO[C@H]6[C@@H]5OC[C@H]6O)[nH]c4cc3F)cc2)cc1 (stereo partly shown) [Compound I-2-93] | 1.1 nM | 652%
CS(=O)(=O)c1ccc(-c2ccc(-c3nc4cc(O[C@@H]5CO[C@H](CO)C5)[nH]c4cc3F)cc2)nc1 [Compound I-2-94] | 0.99 nM | 652%
COCCS(=O)(=O)c1ccc(-c2ccc(-c3nc4cc(O[C@@H]5CO[C@H]6[C@@H]5OC[C@H]6O)[nH]c4cc3F)cc2)cc1 [Compound I-2-95] | 2.6 nM | 634%
COCCS(=N)(=O)c1ccc(-c2ccc(-c3nc4cc(O[C@@H]5CO[C@H]6[C@@H]5OC[C@H]6O)[nH]c4cc3F)cc2)cc1 (stereo partly shown) [Compound I-2-96] | 2.9 nM | 631%
O=C(c1ccc(-c2ccc(-c3nc4cc(O[C@@H]5CO[C@H](CO)C5(F)F)[nH]c4cc3F)cc2)cc1)N1CCOCC1 [Compound I-2-97] | 4.6 nM | 527%
